# Assay: Retention/recovery of [19F]DCFPyL on the HLB solvent exchange cartridge as a function of pH (load, wash, product samples)
# Format: physicochemical
# Procedure: The goal of this study was to characterize the impact of pH on the retention of [^18F]DCFPyL on the HLB solvent exchange cartridge. […] The pH of one solution was adjusted to 2 and a second to 4 by adding 1N HCl. A third solution was used without adjusting its native pH of 7.2. Using a BD syringe, 10 mL of each solution was spiked with [^19F]DCFPyL (50 μg) by adding 0.5 mL of a 100 μg/mL stock solution. Each spiked solution was loaded onto a HLB cartridge at a rate of approximately 2 mL/min. […] The eluent from each HLB cartridge was individually collected and identified as the “wash solution.” Each HLB cartridge was then individually eluted with 1 mL of ethanol, the samples collected and are identified as the “product sample.” The load solution and wash solution samples were analyzed using a drug product chemical impurity assay after a 1 to 10 mL dilution with saline, while the ethanolic product samples were analyzed following a 0.5 to 10 dilution with saline.
# The goal of this study was to characterize the impact of pH on the retention of ^18F-DCFPyL on the HLB solvent exchange cartridge. […] The pH of one solution was adjusted to 2 and a second to 4 by adding 1N HCl. A third solution was used without adjusting its native pH of 7.2. At this pH the solution will be mainly sodium ascorbate. Using a BD syringe, 10 mL of each solution was spiked with ^19F-DCFPyL (50 μg) by adding 0.5 mL of a 100 μg/mL stock solution. Each spiked solution was loaded onto an HLB cartridge at a rate of approximately 2 mL/min and the solution collected after the HLB column is identified as the load solution. […] Each HLB cartridge was then individually eluted with 1 mL of ethanol, the solution collected after the HLB column is identified as the product sample. The load solution and wash solution samples were analyzed using the drug product chemical impurity assay after a 1 to 10 mL dilution with saline, while the ethanolic product samples were analyzed following a 0.5 to 10 mL dilution with saline.
structure (smiles),measurement,setting,value
"O=C(O)CC[C@H](NC(=O)N[C@@H](CCCCNC(=O)c1ccc([18F])nc1)C(=O)O)C(=O)O [Lot 18F-DCFPyL, 2-(3-{1-carboxy-5-[(6-[18F]fluoro-pyridine-3-carbonyl)-amino]-pentyl}ureido)-pentanedioic acid]",retention of [18F]-DCFPyL by the HLB cartridge,pH 2,98%
same,retention of [18F]-DCFPyL by the HLB cartridge,pH 4,81%

# — patent US20250019350A1, “SYNTHESIS OF THE PROSTATE SPECIFIC MEMBRANE ANTIGEN (PSMA) RADIOLABELED INHIBITOR [18F]DCFPYL” (Progenics Pharmaceuticals, Inc, priority 2023, published 2025)
